{
  "source": "patent US11111234B2",
  "about": "“Salt of a quinazoline derivative-like tyrosine kinase inhibitor and crystal form thereof” (Xuanzhu Pharma Co., Ltd., priority 2016, dated 2021)",
  "assay_type_in_all_cases": "physicochemical",
  "key": {"[1]": {"assay": "Study on solubility (HPLC)", "description": "measurement was performed in accordance with High Performance Liquid Chromatography in Appendix II V D in Pharmacopoeia of the People's Republic of China (2010) Volume II."}, "[2]": {"assay": "Study on hygroscopicity (pharmaceutical hygroscopicity test, General Rule 9103 ChP 2015)", "description": "measurement was performed in accordance with the Guidelines for pharmaceutical hygroscopicity test in General Rule 9103 of Pharmacopoeia of the People's Republic of China (2015) Volume IV."}, "[3]": {"assay": "Study on stability (high temperature, high moisture, light; purity by HPLC and XRD)", "settings": "for XRD: compared with the XRD pattern at Day 0", "description": "The Crystal form A of the maleate of the compound of Formula (1) and the hydrochloride of the compound of Formula (1) were kept at 70° C. for 3 d, and the samples were taken at Day 1 and Day 3, respectively, and were tested for purity and XRD, which were compared with those of the sample at Day 0.\nThe Crystal form A of the maleate of the compound of Formula (1) was kept under conditions of high moisture (25° C., RH92.5%) for 5 d, or under condition of light (4500LX±500LX) for 10 d, and was tested for purity and XRD, which were compared with those of the sample at Day 0.\nPurity measurement: measurement was performed in accordance with High Performance Liquid Chromatography in Appendix II V D in Pharmacopoeia of the People's Republic of China (2010) Volume II.\nXRD test: the same as described in Example 1."}},
  "note": "Where a name gives a salt, the structure may show the parent alone.",
  "data": [
    {"smiles": "COc1cc2ncnc(Nc3ccc(F)c(Cl)c3)c2cc1NC(=O)/C=C/CN1CC2(CCC2)C1", "note": "[Crystal form A of the maleate of the compound of Formula (1)] [(E)-N-(4-((3-chloro-4-fluorophenyl)amino)-7-methoxylquinazolin-6-yl)-4-(2-azaspiro[3.3]heptan-2-yl)-2-butenamide]", "values": [
      {"measurement": "solubility", "setting": "[1]; H2O", "result": 4411.5, "unit": "µg/mL"},
      {"measurement": "solubility", "setting": "[1]; pH of solution 1.0", "result": 20277.8, "unit": "µg/mL"},
      {"measurement": "solubility", "setting": "[1]; pH of solution 4.5", "result": 9748.4, "unit": "µg/mL"},
      {"measurement": "solubility", "setting": "[1]; pH of solution 6.5", "result": 89.1, "unit": "µg/mL"},
      {"measurement": "solubility", "setting": "[1]; pH of solution 7.4", "result": 68.9, "unit": "µg/mL"},
      {"measurement": "solubility compared with the hydrochloride", "setting": "[1]; under various pH conditions", "result": "higher solubility"},
      {"measurement": "Hygroscopic weight gain(%)", "setting": "[2]", "result": 0.07, "unit": "%"},
      {"measurement": "Hygroscopicity result", "setting": "[2]", "result": "No or almost no"},
      {"measurement": "hygroscopicity compared with the hydrochloride", "setting": "[2]", "result": "lower hygroscopicity"},
      {"measurement": "purity (%)", "setting": "[3]; 25° C., RH92.5%, standing time 0 d", "result": 98.6, "unit": "%"},
      {"measurement": "purity (%)", "setting": "[3]; 25° C., RH92.5%, standing time 5 d", "result": 98.4, "unit": "%"},
      {"measurement": "XRD", "setting": "[3]; 70° C., 1 d", "result": "the same as"},
      {"measurement": "XRD", "setting": "[3]; 70° C., 3 d", "result": "the same as"},
      {"measurement": "purity (%)", "setting": "[3]; 70° C., standing time 0 d", "result": 98.4, "unit": "%"},
      {"measurement": "purity (%)", "setting": "[3]; 70° C., standing time 1 d", "result": 98.0, "unit": "%"},
      {"measurement": "purity (%)", "setting": "[3]; 70° C., standing time 3 d", "result": 97.4, "unit": "%"},
      {"measurement": "XRD", "setting": "[3]; light 4500LX ± 500LX, 10 d", "result": "the same as"},
      {"measurement": "purity (%)", "setting": "[3]; light 4500LX ± 500LX, standing time 0 d", "result": 98.6, "unit": "%"},
      {"measurement": "purity (%)", "setting": "[3]; light 4500LX ± 500LX, standing time 10 d", "result": 98.4, "unit": "%"},
      {"measurement": "change in purity", "setting": "[3]; light (4500LX±500LX) 10 d, high moisture (25° C., RH92.5%) 5 d, or high temperature (70° C.) 3 d", "result": "No apparent change in purity"}
    ]},
    {"smiles": "COc1cc2ncnc(Nc3ccc(F)c(Cl)c3)c2cc1NC(=O)/C=C/CN1CC2(CCC2)C1", "note": "[Hydrochloride of the compound of Formula (1)] [(E)-N-(4-((3-chloro-4-fluorophenyl)amino)-7-methoxylquinazolin-6-yl)-4-(2-azaspiro[3.3]heptan-2-yl)-2-butenamide]", "values": [
      {"measurement": "solubility", "setting": "[1]; H2O", "result": 2200.6, "unit": "µg/mL"},
      {"measurement": "solubility", "setting": "[1]; pH of solution 1.0", "result": 3255.8, "unit": "µg/mL"},
      {"measurement": "solubility", "setting": "[1]; pH of solution 4.5", "result": 1883.0, "unit": "µg/mL"},
      {"measurement": "solubility", "setting": "[1]; pH of solution 6.5", "result": 17.6, "unit": "µg/mL"},
      {"measurement": "solubility", "setting": "[1]; pH of solution 7.4", "result": 11.2, "unit": "µg/mL"},
      {"measurement": "Hygroscopic weight gain(%)", "setting": "[2]", "result": 7.8, "unit": "%"},
      {"measurement": "purity (%)", "setting": "[3]; 70° C., standing time 0 d", "result": 98.4, "unit": "%"},
      {"measurement": "purity (%)", "setting": "[3]; 70° C., standing time 1 d", "result": 92.5, "unit": "%"},
      {"measurement": "purity (%)", "setting": "[3]; 70° C., standing time 3 d", "result": 89.0, "unit": "%"},
      {"measurement": "decrease in purity", "setting": "[3]; high temperature (70° C.) for 3 d", "result": 9.4, "unit": "%"}
    ]}
  ]
}
